Literature values in patent US20030143291A1, “Herbal compositions and methods for diabetes and weight loss management” (priority 2002, published 2003).

Columns and labels:
[1] = tested on: Methicillin-resistant s. aureus

## CC(C)C1=C2CCC(COC(=O)c3ccc(O)cc3)=CCC2(C)CC1 (centres unmarked) [Compound 6, 14-(4′-hydroxybenzoyloxy)dauc-4,8-diene]
Staphylococcus aures
  antimicrobial activity against Staphylococcus aures: antimicrobial activity
[1]
  antimicrobial activity against Methicillin-resistant s. aureus: antimicrobial activity
